Results: paper PMC11045757, “Group 3 medulloblastoma transcriptional networks collapse under domain specific EP300/CBP inhibition” (Nature Communications, 2024)
Where “and” joins values, the source holds several entries; their conditions need not be identical. Identical values can stand only once. Like-named read-outs stand apart in the source and are kept apart here.

Key:
[1] = system: HDMB03 (HDMBO3) group 3 medulloblastoma cells; assay: CellTiter-Glo dose-response growth assay; format: cell-based; details: for IC50: Homo sapiens; for normalized growth (fraction of control), replicate values: HDMBO3, log10[compound]
In short: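 Growth of the G3MB line HDMB03 was assessed across compound concentrations. Cells went into 384-well plates at 500 cells per well in growth medium and were exposed to compound for the indicated time. A CellTiter-Glo luminescence assay, run per manufacturer instructions and read on an Envision 2104 instrument, quantified remaining cell growth.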

[2] = system: MB002 group 3 medulloblastoma cells; assay: CellTiter-Glo dose-response growth assay; format: cell-based; details: for IC50: MB002, 72 h, day 3, read-out: d3 IC50 MB002; for normalized growth (fraction of control), replicate values: MB002, log10[compound]
In short: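 This is a dose-response growth assay in MB002 cells, a group 3 medulloblastoma line. Cells were plated at 500 cells/well in 384-well plates containing growth media and treated with compound over a concentration series. After the noted incubation period, CellTiter-Glo reagent was applied per the manufacturer's protocol and luminescence was read on an Envision 2104 microplate reader.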

HDMB03 (HDMBO3) cells = assay: ERCC spike-in RNAseq gene expression after 6 h treatment; format: cell-based; details: HDMBO3, replicate values, Supplementary Fig 6c
Experimental: (§1) First, we examined global changes in gene expression induced by drug treatment.
(§2) External RNA consortium control RNAs (ERCC, Ambion) were added directly to Trizol, based on cell number prior to RNA extraction. RNA samples were treated with DNAse I (Invitrogen) prior to recovery. Samples were obtained in biological triplicate. Total RNA was subjected to ribosomal RNA depletion prior to library preparation using the Truseq Stranded Total Library Prep Kit (Illumina) and sequencing on a Nextseq-500 (paired end, 100 bp reads).
(§3) Sequences were aligned using HISAT2 (version 2.1.0)[77] in paired-end mode with default parameters to build version hg19 of the human genome to which the sequences of the ERCC synthetic spike-in RNAs (http://tools.invitrogen.com/downloads/ERCC92.fa) had been added. Per-gene expression was quantified using htseq-count[78] with parameters “-i gene_id --stranded=reverse -f bam -m,” and version 87 of the canonical GRCh37 gene list from RefSeq to which ERCC coordinates were added. TPM-normalized (Transcripts Per Million) expression was then computed for each gene and synthetic ERCC spike-in RNA. Per-gene exon length was calculated across all exons of all isoforms of each gene. The standard TPM-normalization strategy is: normterm = sum of (read count * read length/exon length) across all genes. TPM = read count * read length/exon length * 1e6/normterm. We used a loess regression to normalize the TPM values across all samples of the batch, using only the spike-in values to fit the loess by the “affy” R package[79] with function loess.normalize. This function allowed us to perform loess regression on a matrix of TPM values and used the ERCC subset of data for fitting the loess. The output from this was a matrix of normalized TPM values controlled by ERCC spike-ins.
(§4) We used the elbow method[81] to determine the k value in k-means cluster analysis.
(§5) Dependency analysis was performed using the 22Q4 release of the DepMap dataset, comprising seven medulloblastoma cell lines: UW228, DAOY, ONS76, D458, D425, D283MED, D341MED. Dependency was defined as a Chronos gene effect score of <−0.5, and gene lists were filtered for dependency in >2/7 medulloblastoma cell lines. […] PANTHER was used to define gene annotations, with unknown annotations assigned using individual assessment using the Genecards.org resource.

MB002 cells = assay: as above; format: cell-based; details: MB002, replicate values, Supplementary Fig 6c
Experimental: as §1, §2, §3, §4, §5

ATAD2B = target: T1, ATAD2B (Homo sapiens, UniProt Q9ULI0); assay: BromoScan profiling (DiscoverX); format: binding; details: read-out: Percent Control ATAD2B
T1 construct: purchased Eurofins DiscoverX (BROMOscan)
T1 sequence (Q9ULI0 whole entry): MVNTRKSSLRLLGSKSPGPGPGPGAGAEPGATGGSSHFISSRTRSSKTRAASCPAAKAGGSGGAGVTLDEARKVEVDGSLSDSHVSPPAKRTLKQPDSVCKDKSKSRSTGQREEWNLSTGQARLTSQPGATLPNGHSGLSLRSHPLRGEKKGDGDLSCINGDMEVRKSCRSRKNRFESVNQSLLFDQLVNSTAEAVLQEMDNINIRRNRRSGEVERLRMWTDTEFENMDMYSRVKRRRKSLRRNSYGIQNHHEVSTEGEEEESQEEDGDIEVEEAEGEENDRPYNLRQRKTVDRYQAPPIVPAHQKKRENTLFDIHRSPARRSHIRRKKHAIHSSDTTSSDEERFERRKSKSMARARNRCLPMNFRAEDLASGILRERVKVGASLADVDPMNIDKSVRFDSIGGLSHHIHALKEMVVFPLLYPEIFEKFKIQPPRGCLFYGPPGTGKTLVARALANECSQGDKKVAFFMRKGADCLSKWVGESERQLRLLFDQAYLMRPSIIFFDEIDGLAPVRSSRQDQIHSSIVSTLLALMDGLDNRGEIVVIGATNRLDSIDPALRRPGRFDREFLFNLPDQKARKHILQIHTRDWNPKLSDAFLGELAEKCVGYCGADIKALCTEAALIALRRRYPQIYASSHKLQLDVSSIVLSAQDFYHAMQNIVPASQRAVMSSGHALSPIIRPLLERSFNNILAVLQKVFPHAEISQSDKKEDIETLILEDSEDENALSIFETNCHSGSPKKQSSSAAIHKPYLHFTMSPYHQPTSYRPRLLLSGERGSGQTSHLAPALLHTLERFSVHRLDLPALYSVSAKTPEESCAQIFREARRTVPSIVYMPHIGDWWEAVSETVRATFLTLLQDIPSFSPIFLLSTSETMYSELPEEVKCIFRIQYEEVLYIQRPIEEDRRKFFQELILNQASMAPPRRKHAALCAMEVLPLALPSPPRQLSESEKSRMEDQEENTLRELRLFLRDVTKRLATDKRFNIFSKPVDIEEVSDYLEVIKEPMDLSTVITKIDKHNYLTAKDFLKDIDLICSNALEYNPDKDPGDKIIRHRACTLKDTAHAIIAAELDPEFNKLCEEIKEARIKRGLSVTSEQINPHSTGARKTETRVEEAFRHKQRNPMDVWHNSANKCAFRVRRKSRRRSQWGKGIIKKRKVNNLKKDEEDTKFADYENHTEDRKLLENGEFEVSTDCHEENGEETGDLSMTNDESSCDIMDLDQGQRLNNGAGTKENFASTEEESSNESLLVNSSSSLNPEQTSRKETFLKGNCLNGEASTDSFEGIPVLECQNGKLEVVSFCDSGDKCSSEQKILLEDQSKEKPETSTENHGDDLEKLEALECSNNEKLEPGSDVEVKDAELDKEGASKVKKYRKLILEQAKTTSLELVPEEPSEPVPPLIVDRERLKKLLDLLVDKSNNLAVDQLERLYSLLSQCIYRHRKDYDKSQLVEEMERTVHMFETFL

BRD4(2) = target: T2, BRD4(2) (Homo sapiens, UniProt O60885); assay: BromoScan profiling (DiscoverX); format: binding; details: read-out: Percent Control BRD4(2)
T2 construct: BRD4(2); purchased Eurofins DiscoverX (BROMOscan)

CECR2 = target: T3, CECR2 (Homo sapiens, UniProt Q9BXF3); assay: BromoScan profiling (DiscoverX); format: binding; details: read-out: Percent Control CECR2
T3 construct: purchased Eurofins DiscoverX (BROMOscan)
T3 sequence (Q9BXF3 whole entry): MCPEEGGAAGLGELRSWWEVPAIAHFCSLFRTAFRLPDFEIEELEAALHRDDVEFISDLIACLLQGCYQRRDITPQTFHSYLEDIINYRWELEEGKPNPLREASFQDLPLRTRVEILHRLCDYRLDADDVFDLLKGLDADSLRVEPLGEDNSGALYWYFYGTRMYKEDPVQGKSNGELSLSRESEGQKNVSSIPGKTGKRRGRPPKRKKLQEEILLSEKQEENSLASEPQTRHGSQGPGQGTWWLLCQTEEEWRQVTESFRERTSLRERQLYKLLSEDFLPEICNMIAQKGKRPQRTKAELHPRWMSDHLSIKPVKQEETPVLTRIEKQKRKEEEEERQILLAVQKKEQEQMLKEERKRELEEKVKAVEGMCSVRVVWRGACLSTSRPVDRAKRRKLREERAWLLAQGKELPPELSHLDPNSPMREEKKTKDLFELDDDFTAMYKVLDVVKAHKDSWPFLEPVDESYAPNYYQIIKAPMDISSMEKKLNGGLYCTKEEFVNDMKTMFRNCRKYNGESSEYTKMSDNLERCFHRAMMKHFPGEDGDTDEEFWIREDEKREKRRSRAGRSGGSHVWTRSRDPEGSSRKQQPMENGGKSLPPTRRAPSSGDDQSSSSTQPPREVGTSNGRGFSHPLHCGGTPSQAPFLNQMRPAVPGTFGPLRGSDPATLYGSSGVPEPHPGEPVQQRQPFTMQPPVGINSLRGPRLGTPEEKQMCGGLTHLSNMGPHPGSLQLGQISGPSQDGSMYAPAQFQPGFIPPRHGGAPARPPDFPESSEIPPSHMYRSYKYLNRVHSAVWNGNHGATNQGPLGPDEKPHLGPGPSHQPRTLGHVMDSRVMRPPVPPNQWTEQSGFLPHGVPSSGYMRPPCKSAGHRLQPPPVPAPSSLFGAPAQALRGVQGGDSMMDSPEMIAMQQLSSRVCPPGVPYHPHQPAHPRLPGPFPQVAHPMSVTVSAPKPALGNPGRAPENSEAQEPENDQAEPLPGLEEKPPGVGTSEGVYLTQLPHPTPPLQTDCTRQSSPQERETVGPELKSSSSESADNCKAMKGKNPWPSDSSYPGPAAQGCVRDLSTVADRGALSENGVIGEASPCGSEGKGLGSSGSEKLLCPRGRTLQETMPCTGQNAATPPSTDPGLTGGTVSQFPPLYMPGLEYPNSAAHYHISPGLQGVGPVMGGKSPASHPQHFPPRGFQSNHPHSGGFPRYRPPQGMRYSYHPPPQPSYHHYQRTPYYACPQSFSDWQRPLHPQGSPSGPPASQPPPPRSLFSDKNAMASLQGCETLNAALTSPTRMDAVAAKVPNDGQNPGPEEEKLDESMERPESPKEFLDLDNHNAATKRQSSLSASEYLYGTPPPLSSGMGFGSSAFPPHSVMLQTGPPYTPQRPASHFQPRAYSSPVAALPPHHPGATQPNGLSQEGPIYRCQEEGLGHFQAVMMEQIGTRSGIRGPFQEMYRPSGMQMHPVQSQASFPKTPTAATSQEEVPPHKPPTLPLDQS

EP300 = target: T4, EP300 (Homo sapiens, UniProt Q09472); assay: BromoScan profiling (DiscoverX); format: binding; details: read-out: Percent Control EP300
T4 construct: purchased Eurofins DiscoverX (BROMOscan)

[3] = Plasma pharmacokinetics after i.p. dosing; format: in vivo, female CD-1 nude mice; details: 16 and 24 hrs, below lower limit of quantitation
Experimental: All animal studies were approved by the St. Jude Children’s Research Hospital Animal Care and Use Committee and performed in accordance with best practices outlined by the NIH Office of Laboratory Animal Welfare. […] Three survival blood samples were obtained from each mouse via retro-orbital plexus using 70 μL glass microhematocrit capillary tubes (Fisher), and a fourth final sample by cardiac puncture immediately following the third survival sample, all using K-EDTA as anticoagulant. Samples were obtained at various times up to 24 h post-dose, immediately processed to plasma, and stored at −80 °C until analysis. […]
Brain samples were homogenized using a FastPrep-24 system (MP Biomedicals, Santa Ana, CA), and stored at -80 °C until analysis by qualified liquid chromatography–tandem mass spectrometry (LC-MS/MS) assay. […] Plasma and brain homogenate samples were precipitated, and extracted supernatant was analyzed on an AB Sciex ExionLC high performance liquid chromatography system via an AB Sciex ExionLC autosampler. For quantitation, a linear model (1/X^2 weighting) fit the plasma and brian homogenate calibrators across the 1 to 500 ng/mL range, with a correlation coefficient (R) of ≥0.9967. The lower limit of quantitation (LLOQ), defined as a peak area signal-to-noise ratio of 5 or greater verses a matrix blank with internal standard, was 1 ng/mL in plasma and 6 ng/mL in brain. […]

[4] = Brain tissue concentration after i.p. dosing (LC-MS/MS); format: in vivo, female CD-1 nude mice; details: below lower limit of quantitation
Experimental: One of the most aggressive MB tumor subtypes are Group 3 medulloblastoma (G3MB), which are commonly characterized by overexpression of the driver oncogene c-MYC due to gene amplification in 17% of cases[40],[42],[43]. These tumors are associated with poor patient survival. […] We sacrificed treated mice at three timepoints after dosing (8, 16, 24 h) and perfused the murine vasculature with PBS to eliminate contaminating blood from the brain.
All animal studies were approved by the St. Jude Children’s Research Hospital Animal Care and Use Committee and performed in accordance with best practices outlined by the NIH Office of Laboratory Animal Welfare. […]
Brain samples were homogenized using a FastPrep-24 system (MP Biomedicals, Santa Ana, CA), and stored at -80 °C until analysis by qualified liquid chromatography–tandem mass spectrometry (LC-MS/MS) assay. […] Plasma and brain homogenate samples were precipitated, and extracted supernatant was analyzed on an AB Sciex ExionLC high performance liquid chromatography system via an AB Sciex ExionLC autosampler. For quantitation, a linear model (1/X^2 weighting) fit the plasma and brian homogenate calibrators across the 1 to 500 ng/mL range, with a correlation coefficient (R) of ≥0.9967. […] No matrix effects, ion enhancement or suppression, were detected in blank CD-1 mouse plasma or NSG brain homogenates.

[5] = HD-MB03, 72 h, day 3, read-out: d3 IC50 HDMBO3

**Q.** For `CNC(=O)Nc1ccc2c(c1)CCC21OC(=O)N(CC(=O)N(Cc2ccc(F)cc2)C(C)C(F)(F)F)C1=O` (stereo not shown) [Compound A485], which IC50 [1, 5] is on record?
**A.** The IC50 was 400 nM.

**Q.** And the IC50 [2]?
**A.** Its IC50 is 1970 nM.

**Q.** What about the “Normalized MYC expression” value (HDMB03 (HDMBO3) cells) of the same compound?
**A.** Its value is 0.9151 and 0.6386 and 0.4867.

**Q.** And the “Normalized MYC expression” value (MB002 cells)?
**A.** Its value is 0.2801 and 0.5062 and 0.4843.

**Q.** Which results are given for `CO[C@H]1CC[C@H](n2c([C@@H]3CCCC(=O)N3c3ccc(F)c(F)c3)nc3cc(-c4c(C)noc4C)ccc32)CC1` [CCS1477]?
**A.** normalized growth (fraction of control), replicate values ([1]; M = -4.7): 0.042 and 0.025 and 0.028 and 0.036 and 0.035 and 0.041 and 0.053 (2×) and 0.048 and 0.054 and 0.043 and 0.052; normalized growth (fraction of control), replicate values ([1]; M = -5.21): 0.044 and 0.033 (2×) and 0.034 and 0.036 and 0.027 and 0.037 and 0.05 and 0.032 and 0.029 and 0.031 and 0.04; normalized growth (fraction of control), replicate values ([1]; M = -5.73): 0.036 and 0.028 and 0.032 and 0.05 and 0.027; normalized growth (fraction of control), replicate values ([1]; M = -6.25): 0.073 and 0.039 (2×) and 0.064 (2×) and 0.053 and 0.055 and 0.069 and 0.061 and 0.031 and 0.047 and 0.041; normalized growth (fraction of control), replicate values ([1]; M = -6.76): 0.122 and 0.123 and 0.093 and 0.099 and 0.112 and 0.108 and 0.113 and 0.078 and 0.09 and 0.094 and 0.079 and 0.066; normalized growth (fraction of control), replicate values ([1]; M = -7.28): 0.344 and 0.279 and 0.281 and 0.294 and 0.307 and 0.364 and 0.263 and 0.244 and 0.257 and 0.231 and 0.199 and 0.251; normalized growth (fraction of control), replicate values ([1]; M = -7.79): 0.653 and 0.647 and 0.598 and 0.634 and 0.582 and 0.697 and 0.7 and 0.556 and 0.819 and 0.469 and 0.726 and 0.588; normalized growth (fraction of control), replicate values ([1]; M = -8.31): 0.976 and 1.03 and 0.907 and 0.959 and 0.846 and 0.924 and 0.949 and 0.892 and 1.092 and 1.013 and 0.868; normalized growth (fraction of control), replicate values ([1]; M = -8.82): 1.054 and 0.933 and 1.006 and 0.821 and 1.079 and 1.062 and 1.187 and 0.91 and 1.023 (2×) and 0.934 and 0.969; IC50 [1, 5]: 39 nM; IC50 ([1]; HD-MB03, HDMBO3 G3MB cell growth, read-out: IC50 (nM) HDMBO3): 82 ± 32 nM; IC50 [2]: 1280 nM; normalized growth (fraction of control), replicate values ([2]; M = -4.7): 0.021 and 0.012 (2×) and 0.014 and 0.011 (7×) and 0.01 (2×) and 0.007 (2×) and 0.009 (3×); normalized growth (fraction of control), replicate values ([2]; M = -5.21): 0.053 and 0.051 and 0.056 (2×) and 0.055 and 0.067 (4×) and 0.062 and 0.069 and 0.07 and 0.077 and 0.073 and 0.064 and 0.08 and 0.074 and 0.061; normalized growth (fraction of control), replicate values ([2]; M = -5.73): 0.176 and 0.2 and 0.173 (2×) and 0.221 and 0.192 and 0.209 and 0.163 and 0.174 and 0.198 and 0.167 and 0.182 and 0.161 and 0.164 and 0.153 and 0.149 and 0.147 and 0.172; normalized growth (fraction of control), replicate values ([2]; M = -6.25): 0.427 and 0.39 and 0.435 and 0.48 and 0.521 and 0.536 and 0.339 and 0.326 and 0.323 and 0.364 and 0.327 and 0.314 and 0.325 and 0.273 (2×) and 0.287 (2×) and 0.391; normalized growth (fraction of control), replicate values ([2]; M = -6.76): 0.571 and 0.619 and 0.593 and 0.57 (2×) and 0.624 and 0.745 and 0.543 and 0.601 and 0.505 and 0.54 and 0.511 and 0.346 and 0.471 and 0.506 and 0.447 and 0.463 and 0.363; normalized growth (fraction of control), replicate values ([2]; M = -7.28): 0.767 and 0.779 and 0.746 and 0.805 and 0.733 and 1.069 and 0.749 and 0.742 and 0.816 and 0.687; remaining binding at 1 µM (ATAD2B): 79%; remaining binding at 1 µM (BRD4(2)): 75%; remaining binding at 1 µM (CECR2): 78%; remaining binding at 1 µM (EP300): 1.6%; Normalized MYC expression (HDMB03 (HDMBO3) cells): 0.5957 and 0.4799 and 0.4227; Normalized MYC expression (MB002 cells): 0.3944 and 0.5851 and 0.5892; plasma concentration [3]: < 1 ng/mL; brain tissue concentration ([4]; 25 or 50 mg/kg i.p., 8, 16, 24 h): < 6 ng/mL; brain concentration ([4]; i.p., 16 and 24 hrs): < 6 ng/mL
